# Test results taken from EP4818172A1, “ASCORBIC ACID DERIVATIVES AND COSMETIC CONTAINING SAME” (Seiwa Kasei Co., Ltd., priority 2023, dated 2025).
# Key:
# [1] = tested on: Normal human dermal fibroblasts (NHDF); assay: Hyaluronic acid production promoting effect (ELISA of supernatant); type: cell-based; conditions: sample at 10 mM or less in serum-free D-MEM, cultured 48 hours, % of control group (100%), N=3
# Experimental: Normal human dermal fibroblasts (NHDF) were prepared in D-MEM containing 5% (v/v) fetal bovine serum to a cell density of 2.5 × 10^4 cells/well, and then pre-incubated on a 96-well plate for 24 hours. After removing the medium, samples prepared in serum-free D-MEM were added to each well and cultured for 48 hours. After the culture was completed, the amount of hyaluronic acid in the supernatant was quantified by ELISA. Measurements were performed in triplicate (N=3).
# The amount of hyaluronic acid produced when the sample was measured at a concentration of 10 mM or less was compared with that of the control group, and the results (% values when the control group is set to 100%) are shown in Tables 18 to 20 based on the following criteria. • <100%: ± • 100-120%: + • 120%<: ++ [Table 18]
# [2] = Stability test -2: residual rate in cream of pH 7 or 9 stored at 50°C; type: physicochemical; conditions: cream with 4.0 W/W% derivative
# Experimental: (§1) For each of the samples of Synthesis Examples 9 to 32, (a) and (b) shown in Table 12 were each heated and mixed. After cooling, (c) shown in Table 12 was added to prepare a cream with a pH of 7 or 9. The sample was stored at 50°C for 4 weeks, and the residual rate was determined in the same manner as in Test Example 1 and evaluated according to the criteria described below. The odor and coloration were also evaluated according to the same method and criteria as in Test Example 1. The results regarding the residual rate are shown in Tables 13 and 14, and the results regarding the odor and coloration are shown in Tables 15 and 16.
# • ⊚: 95% or more • ○: 85% or more, less than 95% • ×: Less than 85% [Table 12]
# [3] = Stability test -2: odor and coloration of cream stored at 50°C; type: physicochemical; conditions: Test Example 2, cream stored at 50°C, total score of 10 panelists
# Experimental: For each of the samples of Synthesis Examples 1 to 6, 1% aqueous solutions were adjusted to pH 3, 5, 7, 8, and 9 with a dilute potassium hydroxide aqueous solution, and then placed in 50 mL screw tubes and • 2: Color changes compared to immediately after preparation. • 1: Strongly colored compared to immediately after preparation. Based on the results of the above evaluation, the following classification was made: • ○: Total score of 10 panelists is 25 or more • △: Total score of 10 panelists is 16-24 • ×: The total score of 10 panelists is 15 or less [Table 10]
# as §1
Compound,Hyaluronic acid production-promoting effect [1],"Residual Rate After 2 weeks ([2]; pH7, stored at 50°C)","Residual Rate After 4 weeks ([2]; pH7, stored at 50°C)","Residual Rate After 2 weeks ([2]; pH9, stored at 50°C)","Residual Rate After 4 weeks ([2]; pH9, stored at 50°C)",Coloration After 2 weeks [3],Odor After 2 weeks [3],Coloration After 4 weeks [3],Odor After 4 weeks [3]
"CCCCCCCCCCCCCCCC(=O)OC[C@H](O)[C@H]1OC(=O)C(OP(=O)(O)O)=C1O [Ascorbyl phosphate 3Na palmitate, reference compound]",± (<100%),–,–,–,–,–,–,–,–
"CCCCCCCCC(CCCCCC)C(=O)OC[C@H](OC(=O)C(CCCCCC)CCCCCCCC)[C@H]1OC(=O)C(OC(=O)C(CCCCCC)CCCCCCCC)=C1OC(=O)C(CCCCCC)CCCCCCCC (some centres unmarked) [Ascorbyl tetrahexyldecanoate, reference compound]",–,"○ (85% or more, less than 95%)",× (Less than 85%),"○ (85% or more, less than 95%)",× (Less than 85%),○ (Total score of 10 panelists is 25 or more),○ (Total score of 10 panelists is 25 or more),Δ,Δ
"CCCCCCCCCCCCCCCC(=O)OCC(OC(=O)CCC)C1OC(=O)C2=C1OCCCO2 (centres unmarked) [Synthesis Example 30, 5-O-butanoyl-6-O-palmitoyl-2,3-O-(1,3-propanediyl) ascorbic acid]",–,⊚ (95% or more),⊚ (95% or more),⊚ (95% or more),⊚ (95% or more),○ (Total score of 10 panelists is 25 or more),○ (Total score of 10 panelists is 25 or more),○ (Total score of 10 panelists is 25 or more),Δ
"CC(C)CCCCCCCCCCCCCCC(=O)OCC(OC(=O)CCCCCCCCCCCCCCC(C)C)C1OC(=O)C2=C1OCCO2 (centres unmarked) [Synthesis Example 32, 5,6-O-diisostearoyl-2,3-O-(1,2-ethanediyl) ascorbic acid]",+ (100-120%),⊚ (95% or more),⊚ (95% or more),⊚ (95% or more),⊚ (95% or more),○ (Total score of 10 panelists is 25 or more),○ (Total score of 10 panelists is 25 or more),○ (Total score of 10 panelists is 25 or more),Δ
"CC1(C)COC2=C(O1)C(C(O)CO)OC2=O (centres unmarked) [synthesis example 7, 2,3-O-(2,2-dimethyl-1,2-ethanediyl) ascorbic acid]",+ (100-120%),–,–,–,–,–,–,–,–
"CCCCCCCC(=O)OCC(O)C1OC(=O)C2=C1OCCCCO2 (centres unmarked) [synthesis example 11, 6-O-octanoyl-2,3-O-(1,4-butanediyl) ascorbic acid]",++ (120%<),⊚ (95% or more),⊚ (95% or more),⊚ (95% or more),"○ (85% or more, less than 95%)",○ (Total score of 10 panelists is 25 or more),○ (Total score of 10 panelists is 25 or more),○ (Total score of 10 panelists is 25 or more),Δ
"CC(C)CCCCCCCCCCCCCCC(=O)OC[C@H](OC(=O)CCCCCCCCCCCCCCC(C)C)[C@H]1OC(=O)C2=C1OCCCCO2 [synthesis example 18, 5,6-O-diisostearoyl-2,3-O-(1,4-butanediyl) ascorbic acid]",++ (120%<),⊚ (95% or more),⊚ (95% or more),⊚ (95% or more),⊚ (95% or more),○ (Total score of 10 panelists is 25 or more),○ (Total score of 10 panelists is 25 or more),○ (Total score of 10 panelists is 25 or more),Δ
"CCCC(=O)OCC(O)C1OC(=O)C2=C1OCCCO2 (centres unmarked) [synthesis example 20, 6-O-butanoyl-2,3-O-(1,3-propanediyl) ascorbic acid]",++ (120%<),⊚ (95% or more),⊚ (95% or more),⊚ (95% or more),⊚ (95% or more),○ (Total score of 10 panelists is 25 or more),○ (Total score of 10 panelists is 25 or more),○ (Total score of 10 panelists is 25 or more),Δ
"CCCCCCCC(=O)OCC(O)C1OC(=O)C2=C1OCCCO2 (centres unmarked) [synthesis example 22, 6-O-octanoyl-2,3-O-(1,3-propanediyl) ascorbic acid]",++ (120%<),⊚ (95% or more),⊚ (95% or more),⊚ (95% or more),⊚ (95% or more),○ (Total score of 10 panelists is 25 or more),○ (Total score of 10 panelists is 25 or more),○ (Total score of 10 panelists is 25 or more),Δ
"CCCCCCCCCCCC(=O)OCC(O)C1OC(=O)C2=C1OCCCO2 (centres unmarked) [synthesis example 24, 6-O-lauroyl-2,3-O-(1,3-propanediyl) ascorbic acid]",++ (120%<),⊚ (95% or more),⊚ (95% or more),⊚ (95% or more),⊚ (95% or more),○ (Total score of 10 panelists is 25 or more),○ (Total score of 10 panelists is 25 or more),○ (Total score of 10 panelists is 25 or more),Δ
"CCCCCCCCCCCC(=O)OCC(OC(=O)CCCCCCCCCCC)C1OC(=O)C2=C1OCCCO2 (centres unmarked) [synthesis example 25, 5,6-O-dilauroyl-2,3-O-(1,3-propanediyl) ascorbic acid]",++ (120%<),⊚ (95% or more),⊚ (95% or more),⊚ (95% or more),⊚ (95% or more),○ (Total score of 10 panelists is 25 or more),○ (Total score of 10 panelists is 25 or more),Δ,Δ
"CC1(C)OCC(C2OC(=O)C3=C2OCCCCO3)O1 (centres unmarked) [synthesis example 35, 5,6-O-isopropylidene-2,3-O-(1,4-butanediyl) ascorbic acid]",++ (120%<),–,–,–,–,–,–,–,–
"CC1(C)OCC(C2OC(=O)C3=C2OCCCO3)O1 (centres unmarked) [synthesis example 36, 5,6-O-isopropylidene-2,3-O-(1,3-propanediyl) ascorbic acid]",++ (120%<),–,–,–,–,–,–,–,–
"O=C1OC(C2COC(c3ccccc3)O2)C2=C1OCCCCO2 (centres unmarked) [synthesis example 37, 5,6-O-(phenylmethylene)-2,3-O-(1,4-butanediyl) ascorbic acid]",+ (100-120%),–,–,–,–,–,–,–,–
"O=C1OC(C2COC(c3ccccc3)O2)C2=C1OCCCO2 (centres unmarked) [synthesis example 38, 5,6-O-(phenylmethylene)-2,3-O-(1,3-propanediyl) ascorbic acid]",++ (120%<),–,–,–,–,–,–,–,–
"CC1(C)COC2=C(O1)C(=O)OC2C(O)CO (centres unmarked) [synthetic example 8, 2,3-O-(1,1-dimethyl-1,2-ethanediyl) ascorbic acid]",+ (100-120%),–,–,–,–,–,–,–,–
"CCCCCCCC(=O)OCC(OC(=O)CCC)C1OC(=O)C2=C1OCCCCO2 (centres unmarked) [synthetic example 19, 5-O-butanoyl-6-O-octanoyl-2,3-O-(1,4-butanediyl) ascorbic acid]",–,⊚ (95% or more),⊚ (95% or more),⊚ (95% or more),⊚ (95% or more),○ (Total score of 10 panelists is 25 or more),○ (Total score of 10 panelists is 25 or more),○ (Total score of 10 panelists is 25 or more),Δ
"O=C1OC(C(O)COCc2ccccc2)C2=C1OCCCCO2 (centres unmarked) [synthetic example 39, 6-O-benzyl-2,3-O-(1,4-butanediyl) ascorbic acid]",+ (100-120%),–,–,–,–,–,–,–,–
